Laboratory results: the supplement of paper PMC11208160

Test: recombinant UMI read abundance after kanamycin selection (control-corrected) (log10(CPM+1)); higher = more efficient recombination; extreme values may be limits of the assay; sequences stand for … in AGTGCAGAGAAAATCGGCCAGTTTTCTCTGCCTGCAGTCCGCATGCCGTGGGACCCCTTGGGTTCTAACCTGTTGCCTAGATTTATGCAGCGGACTGCCTTTCTCCCAAAGTGATAAACCGG…AGGTTGGTTTCACT; site = the 11-nt donor
Summary of the method: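 In a pooled Escherichia coli screen for the IS621 bridge recombinase, donor and donor-binding-loop pairs were each placed with a 12-nt UMI on a plasmid bearing a promoterless kanamycin gene. This library was co-electroporated with a target plasmid encoding a fixed target and T7-inducible recombinase, and cells were plated either on IPTG (0.07 mM) plus kanamycin or without selection, in two replicates each. Recombinant UMIs were PCR-amplified across the donor–target junction and sequenced, and counts were converted to CPM, averaged over replicates, scaled by control-derived factors and reported as log10(CPM+1).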
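Also: IS621 bridge recombinase in Escherichia coli cells against a fixed T5 target plasmid.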

Sequence | recombinant UMI read abundance (log10)
TCATCCTCATGGACCGGTTTTCCCGGTAATCCGTATTTGAA (site TCATCCTCTTT) | 1.05
TCATCGTCATGGACCGGTTTTCCCGGTAATCCGTATTTGAA (site TCATCGTCTTT) | 0.467
TCATGCCCATGGACCGGTTTTCCCGGTAATCCGTATTTGGC (site TCATGCCCTGC) | 0
TCATTATCATGGACCGGTTTTCCCGGTAATCCGTATTTGCA (site TCATTATCTTG) | 1.7
TCATTCTCATGGACCGGTTTTCCCGGTAATCCGTATTTGCT (site TCATTCTCTAG) | 0.981
TCATTGCCATGGACCGGTTTTCCCGGTAATCCGTATTTGAG (site TCATTGCCTCT) | 0.00408
TCATTTACATGGACCGGTTTTCCCGGTAATCCGTATTTGGA (site TCATTTACTTC) | 0.164
TCCAATACATGGACCGGTTTTCCCGGTAATCCGTATTTGCC (site TCCAATACTGG) | 0
TCCAATACATGGACCGGTTTTCCCGGTAATCCGTATTTGCC (site TCCAATCCTGG) | 0
TCCAATACATGGACCGGTTTTCCCGGTAATCCGTATTTGCC (site TCCAATGCTGG) | 0
TCCAATACATGGACCGGTTTTCCCGGTAATCCGTATTTGCC (site TCCAATTCTGG) | 0
TCCAATCCATGGACCGGTTTTCCCGGTAATCCGTATTTGCC (site TCCAATACTGG) | 0
TCCAATCCATGGACCGGTTTTCCCGGTAATCCGTATTTGCC (site TCCAATCCTGG) | 0
TCCAATCCATGGACCGGTTTTCCCGGTAATCCGTATTTGCC (site TCCAATGCTGG) | 0
TCCAATCCATGGACCGGTTTTCCCGGTAATCCGTATTTGCC (site TCCAATTCTGG) | 0
TCCAATTCATGGACCGGTTTTCCCGGTAATCCGTATTTGGC (site TCCAATTCTGA) | 0
TCCAATTCATGGACCGGTTTTCCCGGTAATCCGTATTTGGC (site TCCAATTCTGC) | 0
TCCAATTCATGGACCGGTTTTCCCGGTAATCCGTATTTGGC (site TCCAATTCTGG) | 0
TCCAATTCATGGACCGGTTTTCCCGGTAATCCGTATTTGGC (site TCCAATTCTGT) | 0

Sequence | recombinant UMI read abundance (log10)
TCCACCGCATGGACCGGTTTTCCCGGTAATCCGTATTTGCT (site TCCACCGCTAG) | 0
TCCACCGCATGGACCGGTTTTCCCGGTAATCCGTATTTGCT (site TCCACCGCTCG) | 0.0171
TCCACCGCATGGACCGGTTTTCCCGGTAATCCGTATTTGCT (site TCCACCGCTGG) | 0
TCCACCGCATGGACCGGTTTTCCCGGTAATCCGTATTTGCT (site TCCACCGCTTG) | 0
TCCACGCCATGGACCGGTTTTCCCGGTAATCCGTATTTGCC (site TCCACGCCTGG) | 0
TCCACTTCATGGACCGGTTTTCCCGGTAATCCGTATTTGAG (site TCCACTTCTCT) | 0.0133
TCCAGTGCATGGACCGGTTTTCCCGGTAATCCGTATTTGGT (site TCCAGTGCTAC) | 0.00561
TCCATAGCATGGACCGGTTTTCCCGGTAATCCGTATTTGTA (site TCCATAGCTTA) | 0.0478
TCCATTTCATGGACCGGTTTTCCCGGTAATCCGTATTTGCC (site TCCAATTCTGG) | 0
TCCATTTCATGGACCGGTTTTCCCGGTAATCCGTATTTGCC (site TCCACTTCTGG) | 0
TCCATTTCATGGACCGGTTTTCCCGGTAATCCGTATTTGCC (site TCCAGTTCTGG) | 0
TCCCAATCATGGACCGGTTTTCCCGGTAATCCGTATTTGTG (site TCCCAATCTCA) | 0.00796
TCCCACCCATGGACCGGTTTTCCCGGTAATCCGTATTTGAG (site TCCCACCCTCT) | 0.00907
TCCCATCCATGGACCGGTTTTCCCGGTAATCCGTATTTGGC (site TCCCATCCTGC) | 0
TCCCCAACATGGACCGGTTTTCCCGGTAATCCGTATTTGTC (site TCCCCAACTGA) | 0
TCCCCTGCATGGACCGGTTTTCCCGGTAATCCGTATTTGAT (site TCCCCTGCTAT) | 0.00458
TCCCGACCATGGACCGGTTTTCCCGGTAATCCGTATTTGAG (site TCCCGACCTCT) | 0.00764
TCCCGGACATGGACCGGTTTTCCCGGTAATCCGTATTTGTC (site TCCCGGACTGA) | 0.905
TCCCGTTCATGGACCGGTTTTCCCGGTAATCCGTATTTGAA (site TCCCGTTCTTT) | 0

Sequence | recombinant UMI read abundance (log10)
TCCCTACCATGGACCGGTTTTCCCGGTAATCCGTATTTGAT (site TCCCTACCTAT) | 0
TCCCTTCCATGGACCGGTTTTCCCGGTAATCCGTATTTGAG (site TCCCTTCCTCT) | 0.0101
TCCGATGCATGGACCGGTTTTCCCGGTAATCCGTATTTGTT (site TCCGATGCTAA) | 0
TCCGGGCCATGGACCGGTTTTCCCGGTAATCCGTATTTGAC (site TCCGGGCCTGT) | 0
TCCGTCCCATGGACCGGTTTTCCCGGTAATCCGTATTTGCA (site TCCGTCCCTTG) | 0
TCCTAATCATGGACCGGTTTTCCCGGTAATCCGTATTTGTT (site TCCTAATCTAA) | 0
TCCTAGACATGGACCGGTTTTCCCGGTAATCCGTATTTGGG (site ACCTAGACTCC) | 0.034
TCCTAGACATGGACCGGTTTTCCCGGTAATCCGTATTTGGG (site CCCTAGACTCC) | 0.0212
TCCTAGACATGGACCGGTTTTCCCGGTAATCCGTATTTGGG (site GCCTAGACTCC) | 0.0199
TCCTAGACATGGACCGGTTTTCCCGGTAATCCGTATTTGGG (site TCCTAGACTCC) | 0.00458
TCCTAGTCATGGACCGGTTTTCCCGGTAATCCGTATTTGTA (site TCCTAGTCTTA) | 0.256
TCCTATACATGGACCGGTTTTCCCGGTAATCCGTATTTGGA (site TCCTATACTTC) | 0.0113
TCCTCATCATGGACCGGTTTTCCCGGTAATCCGTATTTGGA (site TCCTCATCTTC) | 0.00521
TCCTTATCATGGACCGGTTTTCCCGGTAATCCGTATTTGTT (site TCCTTATCTAA) | 0
TCCTTTGCATGGACCGGTTTTCCCGGTAATCCGTATTTGTG (site TCCTTTGCTCA) | 0.0203
TCGAAAACATGGACCGGTTTTCCCGGTAATCCGTATTTGTT (site TCGAAAACTAA) | 0
TCGAATTCATGGACCGGTTTTCCCGGTAATCCGTATTTGCC (site TCAAATTCTGG) | 0
TCGAATTCATGGACCGGTTTTCCCGGTAATCCGTATTTGCC (site TCCAATTCTGG) | 0
TCGAATTCATGGACCGGTTTTCCCGGTAATCCGTATTTGCC (site TCGAATTCTGG) | 0
